Key:
Assay in all cases: Ras GTP binding domain inhibition assay (labeled GTP)
[1] = biological target: KRas G12D/Q61H double mutant (Homo sapiens (Human), UniProt P01116, G12D/Q61H); conditions: for inhibition at 20 µM: 20 μM compound, read-out: % Inhibition at 20 μM KRas G12D Q61H; for IC50: serial dilution, read-out: KRas G12D Q61H (classes E-H, IC50)
Method in brief: (§1)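 Inhibition of labeled GTP binding is measured on immobilized His-KRas protein in Tris buffer pH 7.5 with 1 mM MgCl2 and 1 mM DTT.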

[2] = biological target: KRas Q61H mutant (Homo sapiens (Human), UniProt P01116, Q61H); conditions: 20 μM compound; read-out: % Inhibition at 20 μM KRas Q61H
Method in brief: as §1

[3] = biological target: KRas G12C/Q61H double mutant (Homo sapiens (Human), UniProt P01116, G12C/Q61H); conditions: 20 μM compound; read-out: % Inhibition at 20 μM KRas G12C Q61H
Method in brief: as §1

KRas G12D/Q61H double mutant, sequence (P01116-2 other isoform, or with tags, fused parts or gaps G12D/Q61H): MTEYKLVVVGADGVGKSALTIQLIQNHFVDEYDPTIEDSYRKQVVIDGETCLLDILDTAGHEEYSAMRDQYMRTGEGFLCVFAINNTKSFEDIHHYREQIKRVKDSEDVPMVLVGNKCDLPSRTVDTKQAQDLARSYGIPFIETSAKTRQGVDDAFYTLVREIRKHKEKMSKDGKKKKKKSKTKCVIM
KRas G12C/Q61H double mutant, sequence (P01116-2 other isoform, or with tags, fused parts or gaps G12C/Q61H): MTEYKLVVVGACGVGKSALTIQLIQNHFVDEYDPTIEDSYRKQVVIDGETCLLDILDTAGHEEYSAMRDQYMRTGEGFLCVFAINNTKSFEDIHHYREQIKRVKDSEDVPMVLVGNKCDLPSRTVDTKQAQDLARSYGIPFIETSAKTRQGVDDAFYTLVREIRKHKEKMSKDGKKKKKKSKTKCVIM
KRas Q61H mutant, sequence (P01116-2 other isoform, or with tags, fused parts or gaps Q61H): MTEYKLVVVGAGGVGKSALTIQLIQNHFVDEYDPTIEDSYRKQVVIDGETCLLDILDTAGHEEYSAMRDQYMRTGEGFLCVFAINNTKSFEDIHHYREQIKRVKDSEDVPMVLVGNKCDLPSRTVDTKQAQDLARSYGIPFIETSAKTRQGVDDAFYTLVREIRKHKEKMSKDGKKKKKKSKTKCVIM

| inhibition at 20 µM [1] | inhibition at 20 µM [2] | inhibition at 20 µM [3] | SMILES | IC50 [1] |
| --- | --- | --- | --- | --- |
| 25 to 50% | 76 to 100% | 51 to 75% | O=C(c1csc2c(O)nc(-c3ccccn3)nc12)N1CCNC(c2ccccc2F)C1 (centres unmarked) [drawing 2776] | – |
| 25 to 50% | 51 to 75% | 51 to 75% | O=C(c1csc2c(O)nc(-c3ccccn3)nc12)N1CCNC(Cc2ccccc2)C1 (centres unmarked) [drawing 2778] | – |
| 0% | 51 to 75% | 51 to 75% | O=C(NCCc1ccncc1)c1csc2nc(-c3ccccn3)nc(N3CCOCC3)c12 [drawing 2779] | – |
| 0% | 25 to 50% | 25 to 50% | COc1cc(CCN(C)C(=O)c2csc3nc(-c4ccccn4)nc(N4CCOCC4)c23)ccn1 [drawing 2781] | – |
| 1 to 25% | 25 to 50% | 25 to 50% | O=C(NCCc1cncnc1)c1csc2nc(-c3ccccn3)nc(N3CCOCC3)c12 [drawing 2784] | – |
| 1 to 25% | 25 to 50% | 25 to 50% | N#Cc1cccc(CCNC(=O)c2csc3nc(-c4ccccn4)nc(N4CCOCC4)c23)c1 [drawing 2787] | – |
| 1 to 25% | 51 to 75% | 51 to 75% | CN(CCc1cccc(C#N)c1)C(=O)c1csc2nc(-c3ccccn3)nc(N3CCOCC3)c12 [drawing 2788] | – |
| 1 to 25% | 25 to 50% | 1 to 25% | COCCCCNC(=O)c1csc2nc(-c3ccccn3)nc(N3CCOCC3)c12 [drawing 2789] | – |
| 1 to 25% | 51 to 75% | 25 to 50% | COCCCCN(C)C(=O)c1csc2nc(-c3ccccn3)nc(N3CCOCC3)c12 [drawing 2790] | – |
| 1 to 25% | 25 to 50% | 1 to 25% | COCCN(CCOC)c1nc(-c2ccccn2)nc2scc(C(=O)NCCc3ccc(OC)nc3)c12 [drawing 2792] | – |
| 1 to 25% | 51 to 75% | 51 to 75% | CC(C(=O)Nc1ccnc(-c2ccccn2)n1)c1ccc(C#N)cc1 (centres unmarked) [drawing 2794] | – |
| 1 to 25% | 51 to 75% | 51 to 75% | Cc1cnc(-c2ccccn2)nc1NC(=O)C(C)c1ccc(C#N)cc1 (centres unmarked) [drawing 2797] | – |
| 25 to 50% | 25 to 50% | 1 to 25% | COc1cnc(CN)[nH]c1=O [drawing 2801] | – |
| 25 to 50% | 1 to 25% | 1 to 25% | Cc1sc2c(N)nc(-c3ccccn3)nc2c1-c1ccccc1 [drawing 2837] | – |

Further lines, the compound ahead of its results:

| SMILES | inhibition at 20 µM [1] | inhibition at 20 µM [2] | inhibition at 20 µM [3] | IC50 [1] |
| --- | --- | --- | --- | --- |
| Cn1cc(C2CN(C(=O)c3csc4c(O)nc(-c5ccccn5)nc34)CCN2)cn1 (centres unmarked) [drawing 2777] | 1 to 25% | 51 to 75% | 51 to 75% | – |
| COc1ccncc1CCNC(=O)c1csc2nc(-c3ccccn3)nc(N3CCOCC3)c12 [drawing 2780] | 1 to 25% | 25 to 50% | 1 to 25% | – |
| COc1ccnc(-c2nc(O)c3c(C#N)csc3n2)c1 [drawing 2782] | 0% | 51 to 75% | 25 to 50% | – |
| O=C(NCCc1ccnc(O)c1)c1csc2nc(-c3ccccn3)nc(N3CCOCC3)c12 [drawing 2783] | 1 to 25% | 1 to 25% | 1 to 25% | – |
| O=C(NCCc1ccc(O)c(O)c1)c1csc2nc(-c3ccccn3)nc(N3CCOCC3)c12 [drawing 2785] | 0% | 1 to 25% | 25 to 50% | – |
| O=C(NCCc1nnn[nH]1)c1csc2nc(-c3ccccn3)nc(N3CCOCC3)c12 [drawing 2786] | 1 to 25% | 51 to 75% | 25 to 50% | – |
| CNS(=O)(=O)CCCNC(=O)c1csc2nc(-c3ccccn3)nc(N3CCOCC3)c12 [drawing 2791] | 1 to 25% | 25 to 50% | 25 to 50% | – |
| COCCCCNC(=O)c1csc2nc(-c3ccccn3)nc(N(CCOC)CCOC)c12 [drawing 2793] | 0% | 51 to 75% | 25 to 50% | – |
| COc1ccc2c(c1)CCC2C(=O)Nc1ccnc(-c2ccccn2)n1 (centres unmarked) [drawing 2795] | 1 to 25% | 25 to 50% | 1 to 25% | – |
| N#Cc1ccc(COCC(=O)Nc2ccnc(-c3ccccn3)n2)cc1 [drawing 2796] | 0% | 51 to 75% | 25 to 50% | – |
| CC(C(=O)Nc1nc(-c2ccccn2)nc2sccc12)c1ccc(C#N)cc1 (centres unmarked) [drawing 2798] | 1 to 25% | 76 to 100% | 76 to 100% | – |
| COc1ccc(N2CCN(C(=O)c3csc4c(O)nc(-c5ccccn5)nc34)CC2)cc1O [drawing 2802] | 1 to 25% | 51 to 75% | 51 to 75% | – |
| O=C(c1csc2c(O)nc(-c3ccccn3)nc12)N1CCN(c2ccc(O)c(Cl)c2)CC1 [drawing 2803] | 51 to 75% | 51 to 75% | 51 to 75% | 11 to 30 µM |
| CC(c1ccccc1)N1CCN(C(=O)c2csc3c(O)nc(-c4ccccn4)nc23)CC1 (centres unmarked) [drawing 2804] | 51 to 75% | 76 to 100% | 51 to 75% | 11 to 30 µM |
| O=C(c1csc2c(O)nc(-c3ccccn3)nc12)N1CCOC(CN2CCOCC2)C1 (centres unmarked) [drawing 2805] | 1 to 25% | 51 to 75% | 25 to 50% | – |
| O=C(c1csc2c(O)nc(-c3ccccn3)nc12)N1CCNC(c2ccccc2Cl)C1 (centres unmarked) [drawing 2806] | 25 to 50% | 76 to 100% | 51 to 75% | – |
| O=C(c1csc2c(O)nc(-c3ccccn3)nc12)N1CCNC(c2ccc(F)cc2)C1 (centres unmarked) [drawing 2807] | 1 to 25% | 76 to 100% | 76 to 100% | – |
| COCCCCNC(=O)c1csc2nc(-c3ccccn3)nc(N3CCS(=O)(=O)CC3)c12 [drawing 2826] | 1 to 25% | 1 to 25% | 1 to 25% | – |
| COc1cccc(CC2CN(C(=O)c3csc4c(O)nc(-c5ccccn5)nc34)CCN2)c1 (centres unmarked) [drawing 2830] | 51 to 75% | 51 to 75% | 51 to 75% | – |
| O=C(c1csc2c(O)nc(-c3ccccn3)nc12)N1CCNC(Cc2ccc(F)cc2)C1 (centres unmarked) [drawing 2831] | 51 to 75% | 51 to 75% | 51 to 75% | – |
| O=C(c1csc2c(O)nc(-c3ccccn3)nc12)N1CCNC(Cc2cccc(F)c2)C1 (centres unmarked) [drawing 2832] | 51 to 75% | 51 to 75% | 51 to 75% | – |
| COc1ccnc(-c2nc(O)c3c(C(F)(F)F)csc3n2)c1 [drawing 2833] | 25 to 50% | 25 to 50% | 25 to 50% | – |
| Nc1nc(-c2ccccn2)nc2c(-c3ccccc3Cl)csc12 [drawing 2835] | 1 to 25% | 1 to 25% | 1 to 25% | – |
| O=C(c1cc2nc(-c3ccccn3)nc(O)c2s1)N1CCOC(c2ccccc2)C1 (centres unmarked) [drawing 2842] | 51 to 75% | 76 to 100% | 51 to 75% | – |
| O=C(NCCc1cccnc1)c1cc2nc(-c3ccccn3)nc(O)c2s1 [drawing 2843] | 25 to 50% | 51 to 75% | 51 to 75% | – |
